Experimental data taken from paper PMC10597491 (PLOS ONE, 2023).
Bridge positions count the residues as written; N and C are the ends. Ends that are not written are not given here.

Target: T1, IL-7R (Homo sapiens, UniProt P16871+P31785)
T1 construct: constructed to express full-length human IL-7Rα in TF-1 cells; TF-1 cells, which naturally express γc, but not IL-7Rα; expressed in transfected cells
T1 sequence (P16871 21-459): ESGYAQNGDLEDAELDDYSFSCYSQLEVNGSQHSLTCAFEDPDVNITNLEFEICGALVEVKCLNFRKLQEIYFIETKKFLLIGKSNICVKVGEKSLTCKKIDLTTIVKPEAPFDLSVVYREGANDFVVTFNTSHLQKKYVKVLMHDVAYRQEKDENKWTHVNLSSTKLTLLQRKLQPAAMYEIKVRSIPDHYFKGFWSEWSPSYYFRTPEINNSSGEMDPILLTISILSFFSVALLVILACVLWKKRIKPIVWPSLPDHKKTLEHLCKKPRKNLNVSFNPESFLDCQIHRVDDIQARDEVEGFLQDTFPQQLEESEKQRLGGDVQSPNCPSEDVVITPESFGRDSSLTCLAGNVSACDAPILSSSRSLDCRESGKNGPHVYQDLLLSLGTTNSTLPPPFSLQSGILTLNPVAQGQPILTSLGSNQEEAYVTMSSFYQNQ
T1 sequence (P31785 23-369): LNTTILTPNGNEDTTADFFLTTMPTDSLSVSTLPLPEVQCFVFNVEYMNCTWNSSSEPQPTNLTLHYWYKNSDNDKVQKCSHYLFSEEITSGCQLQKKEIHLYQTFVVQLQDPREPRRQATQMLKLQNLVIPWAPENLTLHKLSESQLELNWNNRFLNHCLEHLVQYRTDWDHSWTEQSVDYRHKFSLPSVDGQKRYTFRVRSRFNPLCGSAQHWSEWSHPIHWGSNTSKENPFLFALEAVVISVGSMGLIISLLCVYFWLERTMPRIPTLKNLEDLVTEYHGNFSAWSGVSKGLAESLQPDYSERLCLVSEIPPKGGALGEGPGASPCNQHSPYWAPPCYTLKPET
Experiment: STAT5 phosphorylation in TF1-7Rα cells
Assay type: cell-based
Experimental: The synthetic peptide MDK1472 was designed to bind simultaneously to IL-7Rα and γc subunits and was tested for its ability to induce phosphorylation of STAT5, the primary IL-7R signaling pathway.
Reactions were stopped and cell lysates prepared for pSTAT5 analysis.
Cells were deprived of growth factors by overnight incubation at 5×10^5 cells/mL in starvation medium (RPMI 1640 + 4.5 g/L glucose + 0.2% FBS + 2 mM L-glutamine + 1 mM NaPyr + 10 mM HEPES + 0.5x penicillin-streptomycin with no cytokine supplement) in T75 flasks. For assays, cells were plated in 96-well V-bottom plates at 2×10^5 cells/well. Three-fold serial dilutions in starvation medium of the test compounds or cytokine were added to the cells and incubated for 30 min at 37°C. Following incubation, cell extracts were prepared by adding a mixture of 10x Cell Lysis Buffer (Cell Signaling Technology Cat# 9803) and 100x HALT Phosphatase and Protease Inhibitor Cocktail (Thermo Fisher Cat# 78442) directly to the wells. The plates were agitated at 25°C for 5 min to prepare cell extracts for immediate use or to be stored at -80°C until assay. Detection of pSTAT5 was performed using a PathScan® Phospho-Stat5 (pTyr694) Sandwich ELISA Kit (Cell Signaling Technology Cat# 7113). Detection of pSTAT6 was performed using a PathScan® Phospho-Stat6 (pTyr641) Sandwich ELISA Kit (Cell Signaling Technology Cat# 7275). Detection of pSTAT3 was performed using a PathScan® Phospho-Stat3 (pTyr705) Sandwich ELISA Kit (Cell Signaling Technology Cat# 7300). Cell lysates were added to pre-coated ELISA wells and incubated at 4°C overnight. Primary and secondary antibody incubations and wash steps were performed according to the protocols supplied by the manufacturer. Assays were developed using TMB substrate (Surmodics Cat# TMBW-1000-01) for 5–10 min at 25°C and the reaction was stopped using STOP solution (Surmodics Cat# LSTP-1000-01).

Substance: Ac-GWGIPWCTLDPGSLQCAWLGKHGGGGSGGVVCQDWEGVELCWQGG (disulfide 7-16, 32-41) [MDK1472]
- EC50 (Fig 4A dose response, 30 min at 37°C, pSTAT5 ELISA): 0.018 µM
- efficacy (Emax) of STAT5 phosphorylation relative to IL-7 (TF1-7Rα cells, Fig 3): full efficacy
- dependence of agonist activity on IL-7Rα expression (TF-1 parental (γc+) versus TF1-7Rα cells): completely dependent on IL-7Rα expression
